According to patent US11433069B2, “Methods of use and pharmaceutical combinations comprising histone deacetylase inhibitors and JAK1/2 inhibitors” (University of Modena and Reggio Emilia, priority 2017, dated 2022):

What was measured:
α-tubulin = assay: Western blot of acetylation of α-tubulin; format: cell-based; settings: lymphoma cells; extent not further modified by momelotinib
Description: Lymphoma cell lines treated with 1 μM of momelotinib and 4 μM of citarinostat alone and in combination. […] Whole-cell lysates were subjected to western blotting using the indicated Abs. Tubulin was used to normalize protein loading. […] Whole-cell lysates were subjected to western blotting using the indicated Abs. Tubulin was used to normalize protein loading.
The combination treatment with momelotinib and Compound A leads JAK2/STAT3 pathway inactivation.

[1] = system: 12 hematological cancer cell lines; assay: MTT cell viability, single agents; format: cell-based; settings: panel of 12 lymphoid malignant cell lines, 24-48 hours, range over cell lines
Description: Momelotinib induces dose and time dependent manner growth inhibition in a panel of twelve lymphoid malignant cell lines. Multiple myeloma cells (U266, RPM18266), B-cell lymphoma cells (RL, WSU-NHL, Karpas-422), chronic lymphocytic leukemia cells (MEC-1), mantle cell lymphoma cells (Granta-519, Jeko-1), cutaneous T cell lymphoma cells (Hut-78), anaplastic large cell lymphoma cells (Karpas-299), and Hodgkin lymphoma cells (L-1236, L-540) were treated with a serial dosage of momelotinib (1-10 μM) for 24-48 hours.
Momelotinib and Compound A alone and in combination were tested in 12 hematological cancer cell lines: B-cell lymphomas (WSU-NHL, RL, Karpas-422), mantle cell lymphoma (Granta-519, Jeko-1), cutaneous T cell lymphoma (Hut-78), anaplastic large cell lymphoma (Karpas-299), Hodgkin lymphoma (L-1236, L-540), multiple myeloma (U266, RPM18266) and chronic lymphocytic leukemia (MEC-1). With the exception of GRANTA-519, hematological cancer cell lines were cultured in RPMI-1640 supplemented with 10% fetal bovine serum (FBS), 2 mM glutamine, and 100 U/mL penicillin and streptomycin. For Granta-519 cells, DMEM was used in place of RPMI-1640.
Cell viability was evaluated by MTT colorimetric assay following the manufacturer's instructions. […]

Row | SMILES | acetylation of α-tubulin (α-tubulin) | IC50 [1] [µM]
1 | O=C(CCCCCCNC(=O)c1cnc(N(c2ccccc2)c2ccccc2Cl)nc1)NO [Compound A, 2-((2-chlorophenyl)(phenyl)amino)-N-(7-(hydroxyamino)-7-oxoheptyl)pyrimidine-5-carboxamide] | induced the acetylation of α-tubulin | 1.51 to 60
2 | N#CCNC(=O)c1ccc(-c2ccnc(Nc3ccc(N4CCOCC4)cc3)n2)cc1 [Momelotinib, momelotinib, reference compound] | – | 1.8 to 9.6
